Experimental data published in patent EP4603105A1, “PHARMACEUTICAL COMPOSITION CONTAINING CYCLIC COMPOUND HAVING SELECTIVE KRAS INHIBITORY EFFECT AGAINST HRAS AND NRAS” (CHUGAI SEIYAKU KABUSHIKI KAISHA, priority 2022, dated 2024).
pIC50: −log10 of the molar value. *1 amine or outer side, *2 acyl side, *3 side chain or, on linkers, in order; H or OH if unused. Where a SMILES comes first, the peptide text is derived from it. Bridges are numbered along the chain shown (N, C = ends). [ ]: non-standard residue; d: D form. The star is where a group is joined. hPhe(3,5-F2-4-CF3) = N[C@@H](CCc1cc(F)c(C(F)(F)F)c(F)c1)C(=O)O; hPhe(3-Cl-4-CF3) = N[C@@H](CCc1ccc(C(F)(F)F)c(Cl)c1)C(=O)O; X24 = CC(C)CN([C@@H](Cc1ccc(C(F)(F)F)cc1)C(=O)[*:2])[*:1]; NPrPhe(4-CF3) = CCCN[C@@H](Cc1ccc(C(F)(F)F)cc1)C(=O)O; NMeGly(cPent) = CN[C@H](C(=O)O)C1CCCC1; Ac4c(3,3-F2) = NC1(C(=O)O)CC(F)(F)C1; X7 = C[C@@](N[*:1])(C(=O)[*:2])C1CC1; NMeD = CN[C@@H](CC(=O)O)C(=O)O; NMeL = CN[C@@H](CC(C)C)C(=O)O; Morpholide = C1CN(*)CCO1; NMeA = CN[C@@H](C)C(=O)O; Ac5c = NC1(C(=O)O)CCCC1; Aze = O=C(O)[C@@H]1CCN1; Sar = CNCC(=O)O

What was measured:
[1] = biological target: GDP-bound NRAS wild-type protein (Homo sapiens, UniProt P01111); assay: Binding to NRAS by surface plasmon resonance (SPR), KD and KD ratio to KRAS
In short: (§1)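 Measured at 30°C: SPR with GDP-loaded, E. coli-expressed biotin-Avi RAS captured (~100–300 RU), ascending 75 s compound injections, HBS pH 7.4 with GDP, MgCl2, 4% DMSO. KD from 1:1 fit.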

[2] = biological target: HRAS wild-type protein (Homo sapiens, UniProt P01112); assay: Binding to HRAS by surface plasmon resonance (SPR), KD and KD ratio to KRAS
In short: as §1

[3] = system: human lung cancer strain NCI-H441; type: cell-based
In short: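 Signal came from […] measured per well once the reagent was added. Beforehand, cells were cultured at 37°C and 5% carbon dioxide on a compound series serially diluted in dimethyl sulfoxide.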

[4] = ratio of KD for GDP-bound NRAS wild-type protein to KD for KRAS
[5] = ratio of KD for HRAS wild-type protein to KD for KRAS
[6] = ratio of the KD value with respect to GDP-bound NRAS wild-type protein to the KD value with respect to KRAS
[7] = ratio of the KD value with respect to HRAS wild-type protein to the KD value with respect to KRAS

HRAS wild-type protein, sequence (P01112 whole entry): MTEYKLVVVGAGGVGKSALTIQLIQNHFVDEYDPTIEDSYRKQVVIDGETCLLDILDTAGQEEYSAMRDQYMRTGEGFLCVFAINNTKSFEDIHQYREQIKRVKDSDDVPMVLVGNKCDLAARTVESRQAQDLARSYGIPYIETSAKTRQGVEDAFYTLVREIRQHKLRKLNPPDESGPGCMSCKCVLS
GDP-bound NRAS wild-type protein, sequence (P01111 whole entry): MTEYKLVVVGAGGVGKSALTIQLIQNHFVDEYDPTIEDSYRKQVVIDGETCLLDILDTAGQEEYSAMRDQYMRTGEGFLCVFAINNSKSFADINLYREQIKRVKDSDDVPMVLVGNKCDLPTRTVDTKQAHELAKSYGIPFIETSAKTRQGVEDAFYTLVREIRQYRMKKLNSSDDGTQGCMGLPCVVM

Compound	pIC50 [3]	NRAS /KRAS [1, 4]	HRAS /KRAS [2, 5]	NRAS /KRAS [1, 6]	HRAS /KRAS [2, 7]	NRAS /KRAS ([1]; ratio of KD value for GDP-bound NRAS wild-type protein to KD value for KRAS (SPR))	HRAS /KRAS ([2]; ratio of KD value for HRAS wild-type protein to KD value for KRAS (SPR))
CCCN1C(=O)CN(C)C(=O)CN(C)C(=O)[C@H]([C@@H](C)CC)NC(=O)[C@H](CC(C)C)N(C)C(=O)C[C@@H](C(=O)N2CCOCC2)N(C)C(=O)[C@H](C2CCCC2)N(C)C(=O)C2(CC(F)(F)C2)NC(=O)[C@@H]2CCCN2C(=O)[C@H](CCc2cc(F)c(C(F)(F)F)c(F)c2)NC(=O)CN(C)C(=O)[C@@H]1Cc1ccc(C(F)(F)F)cc1 [PP0766] ([NMeL]I[Sar][Sar][NPrPhe(4-CF3)][Sar][hPhe(3,5-F2-4-CF3)]P[Ac4c(3,3-F2)][NMeGly(cPent)][NMeD]-Morpholide; lactam N-11)	8.06	B (a compound having 3 or more and less than 10 is denoted as B)	B (a compound having 3 or more and less than 10 is denoted as B)	–	–	–	–
CCC[C@H]1C(=O)N[C@@H](C2CCCC2)C(=O)N(C)CC(=O)N(C)[C@H]2C/C=C\CCN(C2=O)[C@@H](Cc2ccc(C(F)(F)F)cc2)C(=O)N(C)CC(=O)N[C@@H](CCc2ccc(C(F)(F)F)c(Cl)c2)C(=O)N2CC3(CC3)C[C@H]2C(=O)NC2(CC(C)(C)C2)C(=O)N(C)[C@@H](C2CCCC2)C(=O)N(C)[C@H](C(=O)N(C)C)CC(=O)N1C [PP2986]	7.60	AA (a compound having 20 or more is denoted as AA)	A (a compound having 10 or more and less than 20 is denoted as A)	–	–	–	–
C=CC[C@H]1C(=O)N[C@@H]([C@@H](C)CC)C(=O)N(C)CC(=O)N(C)[C@H]2CCCCCN(C2=O)[C@@H](Cc2ccc(C(F)(F)F)cc2)C(=O)N(C)CC(=O)N[C@@H](CCc2cc(F)c(C(F)(F)F)c(F)c2)C(=O)N2C[C@H](OCC)C[C@H]2C(=O)NC2(CCC2)C(=O)N(C)[C@@H](C2CCCC2)C(=O)N(C)[C@H](C(=O)N(C)C)CC(=O)N1C [PP0665]	7.81	–	–	B (a compound having 3 or more and less than 10 is denoted as B)	B (a compound having 3 or more and less than 10 is denoted as B)	–	–
CCCN1C(=O)[C@@H]2CCN2C(=O)CN(C)C(=O)[C@H]([C@@H](C)CC)NC(=O)[C@H](CC(C)C)N(C)C(=O)C[C@@H](C(=O)N2CCOCC2)N(C)C(=O)[C@H](C2CCCC2)N(C)C(=O)[C@](C)(C2CC2)NC(=O)[C@@H]2CCCN2C(=O)[C@H](CCc2cc(F)c(C(F)(F)F)c(F)c2)NC(=O)CN(C)C(=O)[C@@H]1Cc1ccc(C(F)(F)F)cc1 [PP0791] ([NMeL]I[Sar][Aze][NPrPhe(4-CF3)][Sar][hPhe(3,5-F2-4-CF3)]P[X7][NMeGly(cPent)][NMeD]-Morpholide; lactam N-11)	7.07	C (A compound having a KD ratio of 0.1 or more and less than 3 is denoted as C)	B (a compound having 3 or more and less than 10 is denoted as B)	–	–	–	–

More lines, in order of rising pIC50 [3], values ahead:

pIC50 [3]	Compound	NRAS /KRAS [1, 4]	HRAS /KRAS [2, 5]	NRAS /KRAS [1, 6]	HRAS /KRAS [2, 7]	NRAS /KRAS ([1]; ratio of KD value for GDP-bound NRAS wild-type protein to KD value for KRAS (SPR))	HRAS /KRAS ([2]; ratio of KD value for HRAS wild-type protein to KD value for KRAS (SPR))
7.49	CC[C@H](C)[C@@H]1NC(=O)[C@H](CC(C)C)N(C)C(=O)C[C@@H](C(=O)N2CCOCC2)N(C)C(=O)[C@H](C2CCCC2)N(C)C(=O)C2(CCCC2)NC(=O)[C@@H]2CCCN2C(=O)[C@H](CCc2ccc(C(F)(F)F)c(Cl)c2)NC(=O)CN(C)C(=O)[C@H](Cc2ccc(C(F)(F)F)cc2)N(CC(C)C)C(=O)[C@@H]2CCN2C(=O)[C@H](C)N(C)C1=O [PP0107] ([NMeL]I[NMeA][Aze][X24][Sar][hPhe(3-Cl-4-CF3)]P[Ac5c][NMeGly(cPent)][NMeD]-Morpholide; lactam N-11)	C (A compound having a KD ratio of 0.1 or more and less than 3 is denoted as C)	C (A compound having a KD ratio of 0.1 or more and less than 3 is denoted as C)	–	–	–	–
7.94	CC[C@H](C)[C@@H]1NC(=O)[C@H](CC)N(C)C(=O)C[C@@H](C(=O)N(C)C)N(C)C(=O)[C@H](C2CCCC2)N(C)C(=O)C2(CCC2)N(C)C(=O)[C@@H]2CCCN2C(=O)[C@H](CCc2cc(F)c(C(F)(F)F)c(F)c2)NC(=O)CN(C)C(=O)[C@H](Cc2ccc(C)cc2)N2CC/C=C\C[C@@H](C2=O)N(C)C(=O)[C@@H]2CCCN2C1=O [PP1786]	–	–	–	–	A (a compound having 10 or more and less than 20 is denoted as A)	B (a compound having 3 or more and less than 10 is denoted as B)
8.19	CCO[C@@H]1C[C@H]2C(=O)NC3(CCC3)C(=O)N(C)[C@@H](C3CCCC3)C(=O)N(CC)[C@H](C(=O)N(C)C)CC(=O)N(C)[C@@H](CC)C(=O)N[C@@H]([C@@H](C)CC)C(=O)N(C)CC(=O)N(C)[C@H]3CCCCN(C3=O)[C@@H](Cc3ccc(C(F)(F)F)cc3)C(=O)N(C)CC(=O)N[C@@H](CCc3cc(F)c(C(F)(F)F)c(F)c3)C(=O)N2C1 [PP0643]	–	–	C (A compound having a KD ratio of 0.1 or more and less than 3 is denoted as C)	B (a compound having 3 or more and less than 10 is denoted as B)	–	–
